# From patent US20240002404A1, “SALT OF PYRROLOPYRIMIDINE COMPOUND, CRYSTALLINE FORM THEREOF, AND APPLICATION THEREOF” (GUANGZHOU JOYO PHARMATECH CO., LTD, priority 2020, published 2024)
# Legend:
# [1] = target: JAK1(h) (Homo sapiens (Human), UniProt P23458); test: In vitro activity assay of JAK1 kinase (radiometric, Eurofins); assay type: biochemical
# Procedure: (§1) Recombinant human JAK1, JAK2, JAK3 and TYK2 […], and main instruments and reagents were provided by Eurofins, UK.
# (§2) Dilution of JAK2, JAK3 and TYK2: 20 mM 3-(N-morpholino)propanesulfonic acid (MOPS), 1 mM EDTA, 0.01% Brij-35.5% glycerol, 0.1% β-mercaptoethanol, 1 mg/mL BSA; dilution of JAK1: 20 mM TRIS, 0.2 mM EDTA, 0.1% β-mercaptoethanol, 0.01% Brij-35.5% glycerol. All compounds were prepared into a 100% DMSO solution and brought to 50-fold the final assay concentration. The test compounds were diluted in 3-fold concentration gradient with 9 final concentrations from 10 μM to 0.001 μM, wherein DMSO content in the assay reaction was 2%. Working stock solutions of the compounds were added to the assay wells as the first component of the reaction, and then the remaining components were added according to the protocol detailed for the assay below.
# (§3) JAK1(h) was incubated with 20 mM Tris/HCl pH 7.5, 0.2 mM EDTA, 500 μM MGEEPLYWSFPAKKK, 10 mM magnesium acetate and [γ-^33P]-ATP (activity and concentration were determined as required). […] 10 μL of the reaction mixture was then added dropwise on a P30 filter pad and washed three times with 0.425% phosphoric acid and once with methanol within 4 minutes, then dried and analyzed using a scintillation counter.
# [2] = target: JAK2(h) (Homo sapiens (Human), UniProt O60674); test: In vitro activity assay of JAK2 kinase (radiometric, Eurofins); assay type: biochemical
# Procedure: as §1, §2
# JAK2(h) was incubated with 8 mM MOPS pH 7.0, 0.2 mM EDTA, 100 μM […], 10 mM magnesium acetate and [γ-^33P]-ATP (activity and concentration were determined as required). The reaction was started by adding the Mg/ATP mixture and terminated by adding 0.5% phosphoric acid after 40 min of incubation at room temperature. 10 μL of the reaction mixture was then added dropwise on a P30 filter pad and washed three times with 0.425% phosphoric acid and once with methanol within 4 minutes, then dried and analyzed using a scintillation counter.
# [3] = target: JAK3(h) (Homo sapiens (Human), UniProt P52333); test: In vitro activity assay of JAK3 kinase (radiometric, Eurofins); assay type: biochemical
# Procedure: as §1, §2
# as §3, with “JAK3(h)” for “JAK1(h)”, “8” for “20”, “MOPS” for “Tris/HCl”, “7.0,” for “7.5,”, “GGEEEEYFELVKKKK,” for “MGEEPLYWSFPAKKK,”
# [4] = target: TYK2(h) (Homo sapiens (Human), UniProt P29597); test: In vitro activity assay of TYK2 kinase (radiometric, Eurofins); assay type: biochemical
# Procedure: as §1, §2
# as §3, with “TYK2(h)” for “JAK1(h)”, “8” for “20”, “MOPS” for “Tris/HCl”, “7.0,” for “7.5,”, “250” for “500”, “GGMEDIYFEFMGGKKK,” for “MGEEPLYWSFPAKKK,”
# [5] = in vitro; conditions: human, Caco-2, pH 7.4
# Procedure: (§4) The transport buffer solution was HBSS (Hanks' balanced salt solution) and 10 mM HEPES [N-(2-hydroxyethyl)piperazine-N-(2-ethanesulfonic acid) solution], with a pH value of 7.40±0.05; Caco-2 cells were purchased from ATCC.
# (§5) Caco-2 cells were seeded at 1×10^5 cells/cm^2 in 96-well BD insert plates of polyethylene terephthalate (PET), and the medium was refreshed every 4-5 days until day 21-28 to form a confluent monolayer. Test compounds were tested in a two-way format at 2 μM in duplicate. Digoxin was added at 10 μM in the two-way format, and nadolol and metoprolol were added at 2 μM in the two-way format. Final concentration of DMSO was adjusted to less than 1%. The plates were incubated in a CO2 incubator at 37±1° C. for 2 h with 5% CO2 at saturated humidity without shaking. All samples were mixed with acetonitrile containing an internal standard, and centrifuged at 4000 rpm for 10 min. 100 microliters of supernatant was diluted with 100 microliters of distilled water for LC/MS/MS analysis. By LC/MS/MS analysis, the concentrations of the test compounds and the reference compound in the initial test article solution, the test article solution and the test compound solution using the peak area ratio of the analyte to the internal standard. After the transport test, the integrity of the Caco-2 cell monolayer was determined by fluorescein yellow exclusion reaction, and the apparent permeability coefficient and efflux ratio were calculated.
# [6] = Pharmacokinetic (PK) test in mice; assay type: in vivo, mice (C57BL/6); conditions: mouse, plasma, male C57BL/6 mice
# Procedure: Clear solutions obtained by dissolving the test compounds were administered to male mice (C57BL/6) or rats (SD) by tail vein injection and oral gavage (overnight fasting, 7-8 weeks old). After the administration of the test compounds, blood was collected from the mandibular vein and centrifuged to obtain plasma at 0.117, 0.333, 1, 2, 4, 7 and 24 h for the intravenous injection group (1 mg/kg), and at 0.25, 0.5, 1, 2, 4, 8 and 24 h for the oral gavage group (3 mg/kg). The plasma concentration was measured by LC-MS/MS, and the relevant pharmacokinetic parameters were calculated by WinNonlin™ Version 6.3 pharmacokinetic software using non-compartmental model linear logarithmic trapezoid method.
# [7] = system: adjuvant-induced arthritis (AIA); test: Adjuvant-induced arthritis (AIA) in rats, in-vivo pharmacodynamic study; parameters: species or system Lewis rats; conditions: rat AIA
# Procedure: The compounds disclosed herein were tested for their efficacy on arthritis using a model of adjuvant-induced arthritis in rat. Female, 160 to 180 gram Lewis rats were anesthetized with isoflurane and injected subcutaneously with 0.1 mL of Mycobacterium tuberculosis suspension in the left hind paw. The animals were grouped and administered with thetest compounds after 13 days of modeling, for example, the rats were given different doses as shown in Table 4-2. The test compound 1-13 was dissolved in a mixed menstruum of [5% DMSO, 95% (12% SBE-β-CD), 0.5% MC]. The female Lewis rats were orally administered 2 times daily (8 animals in each group).
# [8] = Basic pKa of the compound; assay type: physicochemical
# Excerpt: The present disclosure also performs salt-forming screening on L-aspartic acid, fumaric acid, L-tartaric acid and citric acid. Using the crystal form A of the compound represented by formula (II) as raw material, according to the basic pKa (4.47) of the compound and the rough solubility of the starting material in different solvents at room temperature, L-aspartic acid, fumaric acid, L-tartaric acid and citric acid were selected as acidic ligands (molar ratio of free state to acidic ligand was 1:1), and the specific steps of the screening test of five solvent systems as shown in Table 24 were as follows: about 20 mg of the starting crystal form A of the compound represented by formula (II) and equimolar amounts of the above acid were weighed into an HPLC vial, and 0.5 mL of the following solvent were added thereto and mixed to obtain a suspension. After suspending and stirring at room temperature for 3 days, the solid was separated by centrifugation and dried under vacuum at room temperature for about 4 hours.
# [9] = system: Caco-2 cells; test: in vitro; conditions: Caco-2
# Procedure: as §4, §5
# [10] = iv 1 mg/kg, oral gavage 3 mg/kg
# Chain of TYK2(h) (P29597 whole entry): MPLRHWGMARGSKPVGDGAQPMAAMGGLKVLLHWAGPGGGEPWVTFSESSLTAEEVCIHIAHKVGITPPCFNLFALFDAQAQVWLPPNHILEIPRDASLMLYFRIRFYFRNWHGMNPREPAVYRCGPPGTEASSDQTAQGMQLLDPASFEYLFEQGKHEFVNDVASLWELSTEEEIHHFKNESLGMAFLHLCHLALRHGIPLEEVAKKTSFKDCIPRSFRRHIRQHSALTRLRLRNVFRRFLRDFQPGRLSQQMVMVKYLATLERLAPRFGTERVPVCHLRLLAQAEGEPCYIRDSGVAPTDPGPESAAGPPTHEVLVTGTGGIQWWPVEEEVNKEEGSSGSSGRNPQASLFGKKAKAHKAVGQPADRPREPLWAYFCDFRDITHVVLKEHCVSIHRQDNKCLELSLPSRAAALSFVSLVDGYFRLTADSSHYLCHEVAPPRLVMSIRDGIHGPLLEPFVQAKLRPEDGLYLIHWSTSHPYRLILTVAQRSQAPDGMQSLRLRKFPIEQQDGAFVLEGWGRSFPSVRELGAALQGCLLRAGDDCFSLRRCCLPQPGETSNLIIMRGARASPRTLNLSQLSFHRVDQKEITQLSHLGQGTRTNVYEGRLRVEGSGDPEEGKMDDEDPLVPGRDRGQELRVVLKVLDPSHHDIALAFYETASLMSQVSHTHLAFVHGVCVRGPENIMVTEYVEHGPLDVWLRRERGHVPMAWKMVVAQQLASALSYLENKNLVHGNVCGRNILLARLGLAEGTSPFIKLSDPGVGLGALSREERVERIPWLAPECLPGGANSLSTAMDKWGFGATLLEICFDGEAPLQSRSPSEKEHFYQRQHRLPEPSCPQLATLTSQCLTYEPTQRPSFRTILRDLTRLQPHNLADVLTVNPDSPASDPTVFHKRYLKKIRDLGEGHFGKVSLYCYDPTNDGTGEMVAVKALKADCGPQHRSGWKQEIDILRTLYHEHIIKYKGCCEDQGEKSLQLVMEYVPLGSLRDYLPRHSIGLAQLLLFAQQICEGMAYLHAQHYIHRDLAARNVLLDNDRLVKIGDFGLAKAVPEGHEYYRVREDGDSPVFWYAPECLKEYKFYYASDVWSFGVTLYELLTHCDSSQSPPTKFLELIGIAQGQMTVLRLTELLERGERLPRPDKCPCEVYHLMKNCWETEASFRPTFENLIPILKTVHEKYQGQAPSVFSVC
# Chain of JAK2(h) (O60674 whole entry): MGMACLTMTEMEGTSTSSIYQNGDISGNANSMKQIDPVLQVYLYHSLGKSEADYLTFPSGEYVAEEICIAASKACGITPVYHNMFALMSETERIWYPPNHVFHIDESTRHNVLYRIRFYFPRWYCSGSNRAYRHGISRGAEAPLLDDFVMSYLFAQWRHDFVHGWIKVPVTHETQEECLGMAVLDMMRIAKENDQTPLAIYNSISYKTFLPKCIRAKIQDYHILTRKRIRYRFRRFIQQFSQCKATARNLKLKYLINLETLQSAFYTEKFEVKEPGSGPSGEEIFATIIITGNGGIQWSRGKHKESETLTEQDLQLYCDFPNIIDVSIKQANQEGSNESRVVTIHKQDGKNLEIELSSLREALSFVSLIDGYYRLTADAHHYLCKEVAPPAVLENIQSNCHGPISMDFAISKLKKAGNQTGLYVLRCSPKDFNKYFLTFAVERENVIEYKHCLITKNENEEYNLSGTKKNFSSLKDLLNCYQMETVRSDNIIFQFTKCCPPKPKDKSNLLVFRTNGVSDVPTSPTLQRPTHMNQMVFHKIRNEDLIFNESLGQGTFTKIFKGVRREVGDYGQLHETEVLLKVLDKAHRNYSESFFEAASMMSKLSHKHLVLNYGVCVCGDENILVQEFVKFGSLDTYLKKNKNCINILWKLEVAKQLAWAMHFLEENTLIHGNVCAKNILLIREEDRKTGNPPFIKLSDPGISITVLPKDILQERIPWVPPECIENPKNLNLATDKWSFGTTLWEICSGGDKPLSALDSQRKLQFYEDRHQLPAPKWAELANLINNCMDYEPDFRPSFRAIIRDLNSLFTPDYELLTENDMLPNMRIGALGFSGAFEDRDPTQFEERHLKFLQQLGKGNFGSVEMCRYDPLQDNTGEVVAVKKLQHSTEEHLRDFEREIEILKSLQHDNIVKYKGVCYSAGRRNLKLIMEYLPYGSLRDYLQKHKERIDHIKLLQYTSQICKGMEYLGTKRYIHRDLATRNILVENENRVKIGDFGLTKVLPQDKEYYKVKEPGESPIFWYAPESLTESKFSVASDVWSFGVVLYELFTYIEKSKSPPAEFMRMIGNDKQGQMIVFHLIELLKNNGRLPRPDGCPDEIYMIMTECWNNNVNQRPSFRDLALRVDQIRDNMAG
# Chain of JAK3(h) (P52333 whole entry): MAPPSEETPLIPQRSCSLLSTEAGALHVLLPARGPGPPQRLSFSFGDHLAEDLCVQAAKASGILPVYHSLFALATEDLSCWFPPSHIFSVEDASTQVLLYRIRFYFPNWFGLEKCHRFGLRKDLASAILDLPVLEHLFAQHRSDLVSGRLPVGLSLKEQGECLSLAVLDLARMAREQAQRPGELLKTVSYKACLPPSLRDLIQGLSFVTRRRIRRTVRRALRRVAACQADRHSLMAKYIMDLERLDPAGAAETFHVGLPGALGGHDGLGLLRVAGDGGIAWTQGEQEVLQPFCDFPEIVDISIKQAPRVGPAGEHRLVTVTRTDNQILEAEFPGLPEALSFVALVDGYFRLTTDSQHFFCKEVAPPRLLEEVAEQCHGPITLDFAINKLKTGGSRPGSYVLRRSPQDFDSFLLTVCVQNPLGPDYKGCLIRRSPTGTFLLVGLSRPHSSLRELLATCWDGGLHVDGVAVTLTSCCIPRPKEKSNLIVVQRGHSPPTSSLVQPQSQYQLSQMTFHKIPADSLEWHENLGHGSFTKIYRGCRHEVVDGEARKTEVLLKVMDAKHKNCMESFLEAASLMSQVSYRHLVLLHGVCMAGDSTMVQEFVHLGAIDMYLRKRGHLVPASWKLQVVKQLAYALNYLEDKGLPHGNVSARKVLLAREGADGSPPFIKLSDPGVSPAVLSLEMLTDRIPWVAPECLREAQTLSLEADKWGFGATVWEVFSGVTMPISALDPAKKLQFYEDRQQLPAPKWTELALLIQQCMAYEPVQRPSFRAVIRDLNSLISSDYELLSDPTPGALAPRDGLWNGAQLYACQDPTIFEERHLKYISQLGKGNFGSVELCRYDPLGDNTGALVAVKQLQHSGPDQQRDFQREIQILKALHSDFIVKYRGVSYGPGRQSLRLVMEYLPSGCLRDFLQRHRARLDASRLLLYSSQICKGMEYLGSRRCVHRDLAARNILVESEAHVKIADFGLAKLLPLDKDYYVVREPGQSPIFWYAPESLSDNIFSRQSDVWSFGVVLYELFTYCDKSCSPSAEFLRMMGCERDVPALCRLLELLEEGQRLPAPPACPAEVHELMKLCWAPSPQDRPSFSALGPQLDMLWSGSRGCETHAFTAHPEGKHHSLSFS
# Chain of JAK1(h) (P23458 whole entry): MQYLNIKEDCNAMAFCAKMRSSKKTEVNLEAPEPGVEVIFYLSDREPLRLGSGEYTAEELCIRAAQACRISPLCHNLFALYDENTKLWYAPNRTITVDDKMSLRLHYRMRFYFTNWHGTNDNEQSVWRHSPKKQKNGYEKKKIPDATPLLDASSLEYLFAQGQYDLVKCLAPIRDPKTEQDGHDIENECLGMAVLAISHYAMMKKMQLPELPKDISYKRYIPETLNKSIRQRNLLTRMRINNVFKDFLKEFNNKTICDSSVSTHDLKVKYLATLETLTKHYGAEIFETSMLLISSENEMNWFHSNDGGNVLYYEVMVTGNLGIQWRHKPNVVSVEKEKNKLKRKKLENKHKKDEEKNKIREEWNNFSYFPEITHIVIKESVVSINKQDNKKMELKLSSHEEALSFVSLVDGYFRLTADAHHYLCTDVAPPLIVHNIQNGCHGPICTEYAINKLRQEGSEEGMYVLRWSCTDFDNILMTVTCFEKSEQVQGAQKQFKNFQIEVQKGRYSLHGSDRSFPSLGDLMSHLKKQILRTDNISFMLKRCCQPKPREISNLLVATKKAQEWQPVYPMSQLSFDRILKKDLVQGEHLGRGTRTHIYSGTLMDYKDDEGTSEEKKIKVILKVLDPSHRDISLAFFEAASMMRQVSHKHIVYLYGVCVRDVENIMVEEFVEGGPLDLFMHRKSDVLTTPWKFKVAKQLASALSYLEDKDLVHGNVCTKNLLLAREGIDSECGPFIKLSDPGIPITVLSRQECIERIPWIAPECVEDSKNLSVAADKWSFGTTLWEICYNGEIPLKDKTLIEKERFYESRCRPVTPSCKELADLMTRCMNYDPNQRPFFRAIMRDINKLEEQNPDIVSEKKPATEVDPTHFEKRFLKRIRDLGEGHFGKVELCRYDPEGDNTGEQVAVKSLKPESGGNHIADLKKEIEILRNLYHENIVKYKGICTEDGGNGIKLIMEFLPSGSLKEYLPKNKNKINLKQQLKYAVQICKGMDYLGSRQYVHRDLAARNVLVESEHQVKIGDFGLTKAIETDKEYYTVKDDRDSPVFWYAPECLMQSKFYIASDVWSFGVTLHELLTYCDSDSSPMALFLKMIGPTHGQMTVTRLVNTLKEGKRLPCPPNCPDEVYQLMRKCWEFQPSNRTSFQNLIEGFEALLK
IC50 [1] [µM],IC50 [2] [µM],IC50 [3] [µM],IC50 [4] [µM],"Papp A→B at 2 h, 2 μM [5] [nm/s]","Papp B→A at 2 h, 2 μM [5] [nm/s]","efflux ratio at 2 h, 2 μM [5]","AUC(0-inf) [6, 10] [µM·h]","Cmax [6, 10] [µM]","half-life [6, 10] [h]",bioavailability ([6]; oral gavage 3 mg/kg vs iv 1 mg/kg) [%],pKa [8],Mean apparent permeability coefficient Mean Papp A to B [9],Structure (SMILES),"therapeutic effect (inhibition rate versus menstruum control group) ([7]; 3 mg/kg and 10 mg/kg, P<0.0001)",Inhibition on area under the clinical score curve (AUC) ([7]; 3 mg/kg oral 2 times daily) [%],Inhibition on area under the clinical score curve (AUC) ([7]; 10 mg/kg oral 2 times daily) [%]
0.001,0.008,0.118,0.015,286,312,1.09,12.8,6,1.89,88.4,4.47,–,CN(c1ncnc2[nH]ccc12)[C@@H]1CCc2cc(C#N)nn2C1,significant therapeutic effect,49.6,60.5
–,–,–,–,–,–,–,–,–,–,–,–,0.16 10^−6 cm/s,CC(C)(C)NCC(O)COc1cccc2c1CC(O)C(O)C2 (stereo not shown) [Nadolol],–,–,–
